# Experimental data reported in patent US11504396B2 (NKMAX Co., Ltd., priority 2016, dated 2022).
# Columns and labels:
# [1] = test system: SNU-245 (the biliary tract cancer cell line); experiment: 2 day cytotoxicity assay against SNU-245 cells (pretreated or formulated NK cells, or ponatinib alone)
# [2] = test system: Huh-7.5 (hepatic cell line showing subgenomic and genomic hepatitis C virus RNA replication); experiment: Cytotoxicity of NK cells to virus-transformed cell lines (Huh-7.5); conditions: NK cells treated with ponatinib 150 nM for 16 hours, co-cultured 48 hours
# [3] = test system: AGS (the stomach cancer cell line)
# [4] = test system: HepG2.2.15 (hepatic cell transformed with hepatitis B virus and producing HBV); experiment: Cytotoxicity of NK cells to virus-transformed cell lines (HepG2.2.15); conditions: NK cells treated with ponatinib 150 nM for 16 hours, co-cultured 48 hours
# [5] = test system: MDA-MB-231 (the breast cancer cell line)
# [6] = test system: SNU-387 (the liver cancer cell line); experiment: 2 day cytotoxicity assay of kinase inhibitor pretreated NK cells against SNU-387; conditions: FIG. 7B; pretreatment 24 hrs; E:T 0.5:1, 48 hrs
# [7] = test system: SNU-245, the biliary tract cancer cell line; experiment: 4 hr cytotoxic activity assay of pretreated NK cells against SNU-245; format: cell-based, human; conditions: FIG. 4; ponatinib 150 nM 24 hrs, washed; E:T 3:1, 1:1, 0.3:1 for 4 hrs
# Text: (§1) NK cells (effector cells) were co-cultured with cancer cells (target cells; SNU-245 and AGS cells) at the effector-to-target (E:T) cell count ratio (3:1, 1:1, 0.3:1) for 4 hrs.
# [8] = test system: MDA-MB-231 (breast cancer) cells; experiment: Cytotoxicity of NK cells to solid tumor cells (MDA-MB-231); format: cell-based; conditions: NK cells treated with 50 nM Ponatinib for 6 hrs, co-cultured 48 hrs
# human NK cells [9] = experiment: NK cell cycle analysis by propidium iodide staining and flow cytometry; conditions: FIG. 12; ponatinib 150 nM for 2 days; vs control NK cells
# [10] = test system: AGS, the stomach cancer cell line; experiment: 4 hr cytotoxic activity assay of pretreated NK cells against AGS; format: cell-based, human; conditions: FIG. 4; ponatinib 150 nM 24 hrs, washed; E:T 3:1, 1:1, 0.3:1 for 4 hrs
# Text: as §1
# human NK cells [11] = conditions: FIG. 9; NK cells treated with ponatinib 50 or 150 nM 24 hrs, tail vein, one day after injection; vs non-treated NK cells
# [12] = test system: THP-1 (acute monocyte leukemia) cells; experiment: Cytotoxicity of NK cells to leukemia cells (THP-1); format: cell-based; conditions: NK cells treated with ponatinib 500 nM for 6 hrs, co-cultured 48 hours
# Text: (§2) IL-2 is a well-known activator of effector cells such as NK cells.
# NK cells = experiment: Annexin V/7-AAD analysis of NK cells co-cultured with K562 cells; format: cell-based; conditions: FIG. 11; ponatinib 150 nM 24 hrs, then K562 cells E:T 5:1 for 4 hrs; vs untreated cells
# Experimental: After incubation, NK cells were collected and analyzed for cell death by annexin-V and 7-AAD analysis.
# [13] = test system: MIA PaCa-2 (pancreatic cancer) cells; experiment: Cytotoxicity of NK cells to solid tumor cells (MIA PaCa-2); format: cell-based; conditions: NK cells treated with 200 nM Ponatinib for 6 hrs, co-cultured 48 hrs
# [14] = test system: HL-60 (acute promyelocytic leukemia) cells; experiment: Cytotoxicity of NK cells to leukemia cells (HL-60); format: cell-based; conditions: NK cells treated with ponatinib 500 nM for 6 hrs, co-cultured 48 hours
# Text: as §2
# [15] = test system: KG-1 (acute myelogenous leukemia) cells; experiment: Cytotoxicity of NK cells to leukemia cells (KG-1); format: cell-based; conditions: NK cells treated with ponatinib 500 nM for 6 hrs, co-cultured 48 hours
# Text: as §2
# [16] = FIG. 8, ponatinib 150 nM 24 hrs, washed, E:T 0.5:1 for 2 days
# [17] = FIG. 8, ponatinib added to target cells without NK cells, 2 days
# [18] = FIG. 5, high concentrations of ponatinib, 24 hrs, E:T 0.5:1 for 2 days
smiles,measurement,setting,value
"Cc1ccc(C(=O)Nc2ccc(CN3CCN(C)CC3)c(C(F)(F)F)c2)cc1C#Cc1cnc2cccnn12 [Ponatinib, 3-(2-imidazo[1,2-b]pyridazin-3-ylethynyl)-4-methyl-N-[4-[(4-methylpiperazin-1-yl)methyl]-3-(trifluoromethyl)phenyl]benzamide]",anti-cancer cytotoxicity of kinase inhibitor pretreated NK cells against SNU-245 vs untreated NK cells,"[1]; FIG. 7A, pretreatment 24 hrs, E:T 0.5:1, 48 hrs",higher anti-cancer cytotoxicity
same,viability of SNU-245 cancer cells co-cultured with NK cells pretreated with ponatinib,[1]; [16],significantly decreased
same,cytotoxic activity of ponatinib treatment alone against SNU-245,[1]; [17],did not show cytotoxic activity
same,Cytotoxicity of NK Cells to Hur-7.5 Cells,"[2]; E:T = 0.1:1, W/IL-2",76%
same,Cytotoxicity of NK Cells to Hur-7.5 Cells,"[2]; E:T = 0.1:1, W/O IL-2",48%
same,Cytotoxicity of NK Cells to Hur-7.5 Cells,"[2]; E:T = 0.5:1, W/IL-2",96%
same,Cytotoxicity of NK Cells to Hur-7.5 Cells,"[2]; E:T = 0.5:1, W/O IL-2",78%
same,cytotoxic activity of ponatinib-pretreated NK cells against AGS,[3]; [18],decreased
same,viability of AGS cancer cells co-cultured with NK cells pretreated with ponatinib,[3]; [16],significantly decreased
same,cytotoxic activity of ponatinib treatment alone against AGS,[3]; [17],did not show cytotoxic activity
same,Cytotoxicity of NK Cells to HepG2.2.15 Cells,"[4]; E:T = 0.1:1, With IL-2",75%
same,Cytotoxicity of NK Cells to HepG2.2.15 Cells,"[4]; E:T = 0.1:1, Without IL-2",59%
same,Cytotoxicity of NK Cells to HepG2.2.15 Cells,"[4]; E:T = 0.5:1, With IL-2",88%
same,Cytotoxicity of NK Cells to HepG2.2.15 Cells,"[4]; E:T = 0.5:1, Without IL-2",74%
same,cytotoxic activity of ponatinib-pretreated NK cells against MDA-MB-231,[5]; [18],decreased
same,viability of MDA-MB-231 cancer cells co-cultured with NK cells pretreated with ponatinib,[5]; [16],significantly decreased
same,cytotoxic activity of ponatinib treatment alone against MDA-MB-231,[5]; [17],did not show cytotoxic activity
same,anti-cancer cytotoxicity of kinase inhibitor pretreated NK cells against SNU-387 vs untreated NK cells,[6],higher anti-cancer cytotoxicity
same,cytotoxic activity of pretreated NK cells against SNU-245,[7],strongly enhanced cytotoxicity
same,Cytotoxicity of NK Cells to MDA-MB-231 Cells,"[8]; E:T = 0.1:1, With IL-2",28 ± 5%
same,Cytotoxicity of NK Cells to MDA-MB-231 Cells,"[8]; E:T = 0.1:1, Without IL-2",34 ± 4%
same,Cytotoxicity of NK Cells to MDA-MB-231 Cells,"[8]; E:T = 0.5:1, With IL-2",59 ± 8%
same,Cytotoxicity of NK Cells to MDA-MB-231 Cells,"[8]; E:T = 0.5:1, Without IL-2",54 ± 8%
same,fraction of G0/G1 phases of NK cells,human NK cells [9],concomitant decrease
same,fraction of S and G2/M phases of NK cells,human NK cells [9],increased
same,cytotoxic activity of pretreated NK cells against AGS,[10],strongly enhanced cytotoxicity
same,total human NK cells in blood of injected mice,human NK cells [11],more human NK cells
same,viability of human NK cells in blood of injected mice,human NK cells [11],higher viability
same,Cytotoxicity of NK Cells to THP-1 Cells,"[12]; E:T = 0.1:1, With IL-2",79 ± 4%
same,Cytotoxicity of NK Cells to THP-1 Cells,"[12]; E:T = 0.1:1, Without IL-2",20 ± 1%
same,Cytotoxicity of NK Cells to THP-1 Cells,"[12]; E:T = 1:1, With IL-2",99 ± 0%
same,Cytotoxicity of NK Cells to THP-1 Cells,"[12]; E:T = 1:1, Without IL-2",83 ± 1%
same,apoptotic NK cell population (Annexin V+/7-AAD− and Annexin V+/7-AAD+),NK cells,significantly reduced
same,necrotic NK cell population (Annexin V−/7-AAD+),NK cells,significantly reduced
same,Cytotoxicity of NK Cells to MIA PaCa-2 Cells,"[13]; E:T = 0.1:1, With IL-2",66 ± 5%
same,Cytotoxicity of NK Cells to MIA PaCa-2 Cells,"[13]; E:T = 0.1:1, Without IL-2",43 ± 8%
same,Cytotoxicity of NK Cells to MIA PaCa-2 Cells,"[13]; E:T = 0.5:1, With IL-2",100 ± 0%
same,Cytotoxicity of NK Cells to MIA PaCa-2 Cells,"[13]; E:T = 0.5:1, Without IL-2",78 ± 2%
same,Cytotoxicity of NK Cells to HL-60 Cells,"[14]; E:T = 0.1:1, With IL-2",76 ± 9%
same,Cytotoxicity of NK Cells to HL-60 Cells,"[14]; E:T = 0.1:1, Without IL-2",13 ± 3%
same,Cytotoxicity of NK Cells to HL-60 Cells,"[14]; E:T = 1:1, With IL-2",98 ± 2%
same,Cytotoxicity of NK Cells to HL-60 Cells,"[14]; E:T = 1:1, Without IL-2",89 ± 4%
same,Cytotoxicity of NK Cells to KG-1 Cells,"[15]; E:T = 0.1:1, With IL-2",93 ± 1%
same,Cytotoxicity of NK Cells to KG-1 Cells,"[15]; E:T = 0.1:1, Without IL-2",81 ± 1%
same,Cytotoxicity of NK Cells to KG-1 Cells,"[15]; E:T = 1:1, With IL-2",99 ± 1%
same,Cytotoxicity of NK Cells to KG-1 Cells,"[15]; E:T = 1:1, Without IL-2",99 ± 1%
